Assay [1] relates to Streptomyces. The experiment in a line: Steady-state kinetic parameter on wild-type cholesterol oxidase.
Assay [2] concerns Streptomyces. The assay can be described thus: Steady-state kinetic parameter on E361D mutant cholesterol oxidase.

Molecules are shown by their SMILES.

`CC(C)CCC[C@@H](C)[C@H]1CC[C@H]2[C@@H]3CC=C4C[C@@H](O)CC[C@]4(C)[C@H]3CC[C@]12C`: in the assay on Streptomyces [1], the Michaelis constant (Km) came out at 3 µM and the k cat was determined as 44 s⁻¹. In the assay with Streptomyces [2], the Km was determined as 0.6 µM and the k cat stood at 4.2 s⁻¹.
Taken in the same sequence, the figures for `CC(C)CCC[C@@H](C)[C@H]1CC[C@H]2[C@@H]3CC=C4CC(=O)CC[C@]4(C)[C@H]3CC[C@]12C` were 6.2 µM, 64 s⁻¹, 1.4 µM and 0.2 s⁻¹.

The Km is the concentration of substrate that gives half-maximal velocity.

(Values after ChEMBL document CHEMBL1130593, “The importance of GLU361 position in the reaction catalyzed by cholesterol oxidase” (Bioorg Med Chem Lett, 1998).)
